One test has as its system α-synuclein. The experiment in a line: α-synuclein expression in differentiated SH-SY5Y dopaminergic neurons by western blot. Format: cell-based, human. The conditions noted are these: FIG. 6. Here is the method: To analyze the effect on the expression of tyrosine hydroxylase (TH) and α-synuclein as neuron-specific proteins, western blot was performed.
SH-SY5Y cell line was treated with retinoic acid and 12-O-tetradecanoylphorbol-13-acetate (TPA) to induce differentiation into TH-secreting neurons for 6 days.
Differentiated dopaminergic neurons were lysed in PRO-PREP (Intronbio), a cell lysis solution containing protease inhibitor cocktail (Gendepot), and electrophoresed in 10% SDS polyacrylamide gels at 20 μg/well. Transfer was performed using PVDF (Merck millipore) as a membrane, and tyrosine hydroxylase antibody, «-synuclein antibody (Cell signaling), and β-actin antibody (Santa Cruz) were used for reaction for more than 2 hours. Protein expression was detected by staining with ECL substrate (Biorad) for development and graphed using the image J program.
In general terms: Immunoblotting shows a protein as a band on a membrane.

The subject of test [1] is MYSEC (murine yolk sac endothelial cell) cell lines. The experiment in a line: In vitro permeability of MYSEC cell line (LPS, trans well, HRP). The test is classed as cell-based. The settings on record: FIG. 11A. The procedure: (§1) Permeability was measured by an in vitro method using cell culture and in vivo method using Evans blue dye. To increase permeability, LPS was used in the in vitro method and CLP treatment was used in the in vivo method.
To measure permeability by an in vitro method, MYSEC (murine yolk sac endothelial cell) cell lines were used. MYSEC cell lines were placed in the top chamber of a trans well at 2.5×10^5 cells/well and treated with 300 ng of lipopolysaccharide (LPS) derived from Gram-negative bacteria in the presence of the compound of formula (1a-1) for 24 hours. The medium in the top chamber was replaced with 300 μl of serum-free medium containing 5 μl of streptoavidin-HRP. After 5 minutes, 20 μl of the medium in the lower chamber was taken and the activity of HRP was measured as absorbance at 450 nm.
To determine the mechanism by which the compound of formula (1a-1) improves permeability, the same experiment was performed by knocking down the SIRT1 protein in the MYSEC cell line.

In test [2] the test system is APP/PS/Tau transgenic mice. The experiment in a line: Intestinal length in an AD-induced animal model (APP/PS/Tau transgenic mice). The test is classed as in vivo, mouse. The conditions noted are these: 1 mg/kg i.p. once every 3 days for 2 weeks, FIG. 2. Here is the method:
In neurodegenerative diseases (AD and PD), the length of the intestine tends to decrease as the disease progresses, so we looked for changes in intestinal length in an AD-induced animal model.
APP/PS/Tau transgenic mice were used as an AD-induced animal model. The compound of formula (1a-1) was administered intraperitoneally once every 3 days at a concentration of 1 mg/kg to 12-week-old transgenic mice for 2 weeks, and the changes in intestinal length of the mice were measured after 1 and 4 weeks.

In the next test the test system is mouse organs. The experiment in a line: In vivo permeability of mouse organs after CLP (Evans blue dye). The settings on record: treated at 6 and 16 hours after CLP, EBD i.v. at 18 hours; FIG. 11C. The procedure:
as §1
To measure permeability by an in vivo method, the compound of formula (1a-1) was treated at 6 and 16 hours after CLP treatment in the same manner as in Experimental Example 7 above, and 200 μl of a 0.5% Evans blue dye (EBD) solution was administered intravenously at 18 hours, circulated for 1 hour, and organs were harvested to visually confirm the presence of dye. The organs were then homogenized in a homogenizer to extract the dye at 55 °C for 48 hours, and permeability was determined by measuring absorbance at 620 nm.

In another test the test system is SH-SY5Y cell lines. The experiment in a line: Proliferation of neurons (SH-SY5Y, Parkinson's disease cell model), EZ-cytox. The conditions noted are these: 5 days, FIG. 4. The test is classed as cell-based, human. Here is the method:
A medium containing DMEM/F12 (Hyclone), 10% FBS (Hyclone), and 1% penicillin-streptomycin (Hyclone) was used, and the medium was replaced every two days after seeding on a T75 plate. Subculture was performed when the cell density was 80-90%.
Then, to determine the neuronal proliferation effect, the subcultured SH-SY5Y cells were seeded in 96 wells at 5×10^3 cells/well. After 1 day, the medium was replaced with a 5% FBS ratio, and the cells were treated with the compound of formula (1a-1) at concentrations serially diluted 2-fold from 500 nM to 15.6 nM and cultured for 5 days. The medium was replaced with 10% FBS containing the drug every other day. The culture medium with 10% FBS was used as a control. After 5 days, the amount of living cells was measured at 450 nm absorbance using EZ-cytox (DoGen) to compare the cell viability.

Test [3] deals with dopamine transporter (DAT). The experiment in a line: Differentiation of pluripotent stem cells into dopaminergic neurons: dopamine transporter. Format: cell-based. The settings on record: 5-week differentiation sample, FIG. 5B. The procedure: Pluripotent stem cells were seeded in Aggre Well plates (stemcell) at 5,000 cells/microwell and cultured for 5 days in E6 medium (GIBCO) to induce embryonic body (EB) formation. For neural rosette formation, EBs were seeded into 35 mm dishes in groups of 30 and cultured for 10 days in N2bF medium. The 35 mm dishes were used after being coated with 15 μg/ml of poly-L-ornithine (sigma) and 1 μg/ml of fibronectin (sigma). The N2Bf medium composition was DMEM/F12 (GIBCO), N2 supplement (stemcell) 1×, 10% NEAA (GIBCO), 55 µM beta-Mercaptoethanol (GIBCO), bFGF (peprotech) 20 ng/ml. For the formation of spherical neural masses (SNMs), rosette masses were sliced and cultured in petri dishes with N2bF medium. SNMs were no larger than 500 UM in size and were sliced and cultured for 3 to 4 passages. After subculture of SNM, the clumps were broken into small pieces using a tungsten mesh (Nilaco) for the neural progenitor cell (NPC) culture step, and then attached to a PLO/FN-coated dish and cultured in N2bF medium. […]
The effect of the compound of formula (1a-1) on differentiation into neurons was evaluated by comparing the expression of tyrosine hydroxylase (TH) and dopamine transporter (DAT) depending on the presence or absence of treatment with the compound of formula (1a-1).

SMILES strings stand for the structures.

`CCCCCCCCCCCCCC[C@H]1OP(=O)(O)O[C@H]1[C@@H](N)CO.Cl` [formula (1a-1), (4S,5R)-4-((S)-1-amino-2-hydroxyethyl)-2-hydroxy-5-tetradecyl-1,3,2-dioxaphosphoran-2-oxide hydrochloride]: the “expression of α-synuclein” value in the test on α-synuclein (differentiated dopaminergic neurons treated with rotenone (RT)) is “the expression of α-synuclein increased by rotenone was decreased”. For the same compound, the “effectiveness relative to resveratrol (control drug), α-synuclein expression” value with α-synuclein (rotenone-treated differentiated dopaminergic neurons) is on record as “more effective than resveratrol”. In test [1] (MYSEC with knockdown of SIRT1 protein, LPS), the “permeability, SIRT1 knockdown” value is reported as “does not show the effect”. Besides, the permeability entry in test [1] (MYSEC, 300 ng LPS, 24 hours) is reported as “restores the LPS-induced increased permeability to normal”. In addition, the “intestinal length at 4 weeks (6W) vs 1 week (3W) after administration” value in test [2] was “the length of the intestine at 4 weeks is longer compared to the length of the intestine at 1 week”. In addition, the “intestinal length vs control group” value in test [2] (untreated AD-induced mice as control) was “the intestinal length is increased”. Further, the “amount of Evans blue dye (EBD) in each organ” value with mouse organs was “returns to normal”. The “proliferation of nerve cells” value with SH-SY5Y cell lines (15.6 nM to 500 nM) is reported as “proliferation of nerve cells increases with increasing concentrations”. The “concentration of maximum proliferative potency” value in the test on SH-SY5Y cell lines was around 100 nM. Moreover, the “DAT glycosylation (western blot)” value in test [3] is on record as “DAT glycosylation is increased”.

The values above are taken from US20260365684A1, “PHYTOSPHINGOSINE-3,4-CYCLICPHOSPHATE COMPOUND AND PHARMACEUTICAL COMPOSITION COMPRISING THE SAME” (AXCESO BIOPHARMA CO., LTD., priority 2022, published 2026).
